Test results as given in US8940795B2, “Plant disease controlling composition and method for controlling plant disease” (Sumitomo Chemical Company, Limited, priority 2010, dated 2015).

Test system: gray mold fungus (Botrytis cinerea)
Test: Cucumber leaf disk preventive test against gray mold fungus
Format: in vivo
Settings: 15° C., four days
Description: True leaf of cucumber is punched out with cork borer to 13 mm in diameter to prepare a leaf disk. In 24 well microwell plate that is dispensed with 1 ml 0.8% water agar, the leaf disk is placed such that the upper side of the leaf is in an upward direction. Thereto is added 20 micro liter a testing solution prepared by mixing a dimethyl sulfoxide solution of the present compound (racemate) and a dimethyl sulfoxide solution of flutolanil to a predetermined concentration to treat the leaf disk. After confirming that the testing medical solution is dried, conidium of gray mold fungus (Botrytis cinerea) is suspended into potato dextrose broth (DIFCO) in a density of about 10^5 conidium/mL and is then subjected to a spray inoculation. After leaving to stand the leaf disk in a growth chamber set up at 15° C. for four days, an onset area on the leaf is measured and then calculated an onset area rate (hereinafter, referred to as an onset area rate of treated group). The same operation is carried out with 20 micro liter water instead of 20 micro liter a testing medicine solution to calculate an onset area rate (hereinafter, referred to an onset area rate of non-treated group). A preventive value is calculated from the above onset area rate of treated group and the onset area rate of non-treated group by the following equation: Preventive value(%)=100×(A−B)/A wherein […] The same operations as described in Test Example 1 are carried out with zoxamide instead of flutolanil, so as to calculate a preventive value. Also for comparison, the same operations as described in Test Example 1 are carried out with the exception that the testing medicine solution is substituted with a predetermined concentration of each dimethyl sulfoxide solution of the present compound (racemate) or zoxamide, so as to calculate respective preventive values. For comparison, the same operations as described in Test Example 1 are carried out with the exception that the testing medicine solution is substituted with a predetermined concentration of a dimethyl sulfoxide solution of flutolanil, so as to calculate a preventive value.

Row | Compound | preventive value (%) (zoxamide alone 0.5 ppm) | preventive value (%) (zoxamide alone 5.0 ppm) | preventive value (%) (flutolanil alone 0.5 ppm) | preventive value (%) (flutolanil alone 5.0 ppm)
1 | CCC(C)(NC(=O)c1cc(Cl)c(C)c(Cl)c1)C(=O)CCl (stereo not shown) [zoxamide] | 10 | 15 |  | 
2 | CC(C)Oc1cccc(NC(=O)c2ccccc2C(F)(F)F)c1 [flutolanil] |  |  | 10 | 15
